Measurements from US7144880B2, “Compositions relating to novel compounds and targets thereof” (Regents of the University of Michigan, priority 2003, dated 2006).

What was measured:
[1] = tested on: central benzodiazepine receptor; assay: Binding to the central benzodiazepine receptor
Ramos cells [2] = assay: Gene expression profiling (Affymetrix U133A) of treated cells; format: cell-based, human; details: versus control cells
Procedure: In vitro testing with Ramos cells to determine the changes in gene expression (at the level of mRNA) induced by Bz-423 was performed by culturing cells at a density of 500,000 cells per ml. Solvent control (DMSO, final concentration 0.1% V/V]), Bz-423, or Bz-OMe (10 μM) was added to cells. After 4 h, cells were harvested and RNA prepared using Trizol Reagent (#15596-018, Life Technologies, Rockville, Md.) and the RNeasy Maxi Kit (# 75162, Qiagen, Valencia, Calif.) according to manufacturers protocols. Single stranded cDNA was synthesized by reverse transcription using poly (A) RNA present in the starting total RNA sample. Single stranded cDNA was converted into double stranded cDNA and then in vitro transcription carried out in the presence of biotinylated UTP and CTP to produce biotin-labeled cRNA. cRNA was fragmented in the presence of Mg2+, and hybridized to the human genome U133A Genechip array (Affymetrix). Hybridization results were quantified using a GeneArray scanner and analysis carried out according to the instructions provided by Affymetrix. […]
The data were analyzed to detect genes changes Bz treatment according to the criteria that the log-transformed mean signal changed at least four-fold in treated compared to vehicle control samples and that the coefficient of variance for control values (n=4) was less than 10%. […]

[3] = tested on: ornithine decarboxylase (ODC); assay: ODC activity in treated cells, conversion of 3H-ornithine to putrescine; format: cell-based; details: cells treated 4 h
Procedure: In these experiments, the conversion of ornithine to putrescine was quantified using ^3H-ornithine. For comparisons, control cells were treated with vehicle control or difluoromethyl ornithine (DFMO), a potent inhibitor of ornithine decarboxylase (like Bz-423, DFMO is a potent anti-proliferative agent). […] The reduction in ODC activity was paralleled by a decrease in ODC protein levels measured under the same conditions.
As described above, Bz-423 induced apoptosis was signaled by an ROS response that arose from MRC complex III as a result of the state 3 to 4 transition. It was next sought to determine if the ROS response, critical for apoptosis, also mediated these effects on ODC. If the ROS was required for the decrease in ODC activity, it would likewise be implicated as potentially part of the anti-proliferative response to Bz-423. To test this, Ramos cells were treated with Bz-423, DFMO, or vehicle control for 4 h. In parallel, a second group of cells was pre-incubated with MnTBAP to limit the ROS and then cultured with Bz-423, DFMO, and vehicle control.

[4] = tested on: Ramos clones transfected to overexpress Bcl-xL; assay: Antiproliferation, 72 h, media with 10% FBS; format: cell-based, human; details: Bcl-XL overexpressing Ramos, read-out: ED50 (μM) for antiproliferation
Procedure: (§1) Like most 1,4-benzodiazepines, Bz-423 binds strongly to bovine serum albumin (BSA), which reduces the effective concentration of drug free in solution. For example, in tissue culture media containing 10% (v/v) fetal bovine serum (FBS), ca. 99% of the drug is bound to BSA. Therefore, cell culture cytotoxicity assays are conducted in media with 2% FBS to reduce binding to BSA and increase the free [Bz-423]. Under these conditions, the dose response-curve is quite sharp such that there is a limited concentration range at which Bz-423 is only partly effective. Since some benzodiazepines are known to have anti-proliferative properties, the effect of Bz-423 at concentrations <ED50 were carefully analyzed and observed that in addition to inducing apoptosis, Bz-423 prevented cell growth after 3 d in culture. In these low serum conditions, the cytotoxic and anti-proliferative effects overlapped making it difficult to study each effect independently. […] While higher amounts of drug may also block proliferation, it caused apoptosis well before the effects on proliferation could be observed.
(§2) To confirm the decrease in cell number relative to control cells after 3 d of treatment is due to decreased proliferation and not cell death balanced by proliferation, in addition to cell counting, cell divisions were studied. PKH-67 is a fluorescent probe that binds irreversibly to cell membranes and upon cell division is partitioned equally between the daughter cells, making it possible to quantify cell division by flow cytometry. Ramos cells stained with PKH67 and treated with Bz-423 had fewer cell divisions at sub-cytotoxic concentrations which confirmed that the decrease in cell number was due to anti-proliferative affects and not cell death. To determine if Bz-423 induced anti-proliferation was specific to Ramos cells, cell counting and cell cycle experiments were done in other B cell lines and cell lines derived from solid tumors.

[5] = tested on: Ramos clones transfected to overexpress Bcl-2; assay: Antiproliferation, 72 h, media with 10% FBS; format: cell-based, human; details: Bcl-2 overexpressing Ramos, read-out: ED50 (μM) for antiproliferation
Procedure: as §1, §2

Ramos cells [6] = assay: Antiproliferation, 72 h, media with 10% FBS; format: cell-based, human; details: read-out: ED50 (μM) for antiproliferation
Procedure: as §1, §2

[7] = tested on: sub-mitochondrial particles; assay: Redox cycling, NADH and NAD(P)H oxidation assays with sub-mitochondrial particles; format: biochemical; details: SMPs
Procedure: By contrast, replacing the hydroxyl with chlorine or azide, or methylating the phenol effectively abolishes the cytotoxic activity of Bz-423. […] Such agents accept an electron from MRC enzymes and transfer it back to the chain at point of higher reducing potential. This type of ‘redox cycling’ consumes endogenous reducing equivalents (e.g., glutathione) along with […] nucleotides and results in cell death. To distinguish between these alternatives, it was determined whether Bz-423 redox cycles in the presence of sub-mitochondrial particles using standard NADH and NAD(P)H oxidation assays.

[8] = target: peripheral benzodiazepine receptor (PBR) (Homo sapiens, UniProt P30536); assay: Binding to the peripheral benzodiazepine receptor
Chain of peripheral benzodiazepine receptor (PBR) (P30536 whole entry, species assumed): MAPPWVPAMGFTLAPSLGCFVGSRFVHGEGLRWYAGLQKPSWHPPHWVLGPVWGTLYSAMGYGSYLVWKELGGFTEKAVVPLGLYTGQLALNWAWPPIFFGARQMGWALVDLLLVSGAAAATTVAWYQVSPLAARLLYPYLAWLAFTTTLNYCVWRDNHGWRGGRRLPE

[9] = tested on: malignant B cell line CA46; assay: Antiproliferation, 72 h, media with 10% FBS; format: cell-based; details: CA46, 72 h, read-out: ED50 (μM) for antiproliferation
Procedure: as §1, §2

[10] = tested on: malignant B cell line Raji; assay: Antiproliferation, 72 h, media with 10% FBS; format: cell-based; details: read-out: ED50 (μM) for antiproliferation
Procedure: as §1, §2

[11] = tested on: neuroblastoma cell line IMR-32; assay: Antiproliferation, 72 h, media with 10% FBS; format: cell-based; details: IMR-32, 72 h, read-out: ED50 (μM) for antiproliferation
Procedure: as §1, §2

[12] = tested on: neuroblastoma cell line Lan-1; assay: Antiproliferation, 72 h, media with 10% FBS; format: cell-based; details: Lan-1, 72 h, read-out: ED50 (μM) for antiproliferation
Procedure: as §1, §2

[13] = tested on: neuroblastoma cell line SHEP-1; assay: Antiproliferation, 72 h, media with 10% FBS; format: cell-based; details: SHEP-1, 72 h, read-out: ED50 (μM) for antiproliferation
Procedure: as §1, §2

[14] = tested on: ovarian cells with null p53 (SKOV3); assay: Antiproliferation, 72 h, media with 10% FBS; format: cell-based; details: SKOV3, 72 h, read-out: ED50 (μM) for antiproliferation
Procedure: as §1, §2

CN1C(=O)C(Cc2ccc3ccccc3c2)N=C(c2ccc(O)cc2)c2cc(Cl)ccc21 (centres unmarked) [Bz-423]
Binding to the central benzodiazepine receptor [1]: prevents binding | Induction of MIF expression (Ramos cells [2]): approximately 10 fold | Effect on ODC activity [3]: significantly reduced ODC activity | EC50 [4]: 13.7 µM | EC50 [5]: 11.9 µM | EC50 (Ramos cells [6]): 10.7 µM | Redox cycling (substrate oxidation) [7]: does not lead to substrate oxidation | Kd [8]: ~1 µM | EC50 [9]: 13.4 µM | EC50 [10]: 12.9 µM | EC50 [11]: 18 µM | EC50 [12]: 13.7 µM | EC50 [13]: 15.9 µM | EC50 [14]: 18.2 µM
